Test results published in patent US20140235558A1, “PHARMACEUTICAL COMPOSITION HAVING ACTIVITY OF ANTICANCER” (Hanall Biopharma Co., Ltd., priority 2010, published 2014).
Counter-ions that a name gives are not always drawn. Like-named read-outs stand apart in the source and are kept apart here.

What was measured:
[1] = system: AMPKα (5′-AMP-activated protein kinase alpha); test: AMPK activation: phosphorylation of AMPKα at Thr172 in MCF7 cells (AMPKα immunoassay kit); format: cell-based, human; details: MCF7, 24 h
Method: AMPK activation occurs when the generation of ATP, an energy source necessary for the survival of cancer cells, is inhibited. […] In this regard, AMPKα (5'-AMP-activated protein kinase alpha) activation was measured in the MCF7 human breast cancer cells using the AMPKα immunoassay kit (Invitrogen, catalog No. KHO0651). […] Then, the cells were lysed using the AMPKα immunoassay kit (Invitrogen, catalog No. KHO0651) according to the manufacturer's instruction.

[2] = system: human breast cancer cell line MCF7; test: MTT cell growth inhibition, MCF7 cells; format: cell-based
Method: (§1) Briefly, MCF7 and NCI-N87 cells were grown at a density of 5,000 cells/well in DMEM and RPMI1640 media (both purchased from Gibco Life Technologies, USA), respectively, both supplemented with 10% (v/v) bovine calf serum (BCS), on 96-well plates for 16 h (Temp.: 37° C., pH: 7.0˜7.4). Then, the MCF7 cells were incubated for 48 h with 2.5 mM 2-deoxy-D-glucose and 100 μM phenformin HCl, solely or in combination while NCI-N87 cells were incubated for 48 h with 2.5 mM 2-deoxy-D-glucose and 700 μM phenformin HCl, solely or in combination (Temp.: 37° C., pH: 7.0˜7.4). To quantitate viable cells after incubation with 2-deoxy-D-glucose and phenformin HCl, the cell cultures were further incubated for 3 h in the presence of MTT. The formazan crystals thus formed were dissolved with DMSO (dimethyl sulfoxide) before reading absorbance at 560 nm.
(§2) After the 48 h incubation, viable cells were counted on the well plates treated with 2-deoxy-D-glucose and phenformin, and expressed as % cell growth inhibition relative to the count of the viable cells on the well plates treated with neither 2-deoxy-D-glucose nor phenformin.
(§3) When the human breast cancer cell line MCF7 and the human stomach cancer cell line NCI-N87 were treated with various concentrations of phenformin and 2-deoxy-D-glucose, % inhibition of cancer cell growth was measured. The same procedure as in Experimental Example 2 was repeated, with the exception that 2-deoxy-D-glucose and phenformin HCl were used at different concentrations.
(§4) The same procedure as in Experimental Example 3 was repeated in the breast cancer cell line MCF7 and the colorectal cancer cell line HCT116 (both purchased from the Korean Cell Line Bank), with the exception that the materials and concentrations indicated in Tables 5 and 6 were employed.

[3] = system: colorectal cancer cell line HCT116; test: MTT cell growth inhibition, HCT116 cells; format: cell-based, human
Method: as §1, §2, §4

[4] = system: human stomach cancer cell line NCI-N87; test: MTT cell growth inhibition, NCI-N87 cells; format: cell-based
Method: as §1, §2, §3

Structure (SMILES): OCC1O[C@H](O)C[C@@H](O)[C@@H]1O (mixture of isomers) [2-Deoxy-D-glucose, 2-deoxy-D-glucose]
- Normalized to Control (P-AMPK) ([1]; 2-deoxy-D-glucose 2.5 mM): 1.46
- P-AMPK (Unit/ml) ([1]; 2-deoxy-D-glucose 2.5 mM): 7.62 ± 1.2 Unit/ml
- inhibition at 2500 µM ([2]; Homo sapiens, MCF7, 48 h, read-out: Cell Growth Inhibition (%)): 44.2%
- Tumor Growth Inhibition (%) ([2]; MCF7, 2-DG 100 μM alone): 0%
- Tumor Growth Inhibition (%) ([2]; MCF7, 2-DG 500 μM alone): 5%
- Tumor Growth Inhibition (%) ([2]; MCF7, 2-DG 2 mM alone): 31%
- Tumor Growth Inhibition (%) ([2]; MCF7, 2-DG 2.5 mM alone (Table 5)): 58%
- Tumor Growth Inhibition (%) ([2]; MCF7, 2-DG 5.0 mM alone): 76%
- Tumor Growth Inhibition (%) ([2]; MCF7, 2-DG 20.0 mM alone): 91%
- inhibitory effect on breast cancer cells relative to stomach cancer cells ([2]; MCF7 vs NCI-N87, 2.5 mM): about 3 times
- Tumor Growth Inhibition (%) ([3]; 2-DG 2.5 mM alone): 62%
- Tumor Growth Inhibition (%) ([3]; 2-DG 5.0 mM alone): 79%
- Tumor Growth Inhibition (%) ([3]; 2-DG 20.0 mM alone): 93%
- inhibition at 2500 µM ([4]; Homo sapiens, NCI-N87, 48 h, 2-deoxy-D-glucose 2.5 mM): 15.1%
- Tumor Growth Inhibition (%) ([4]; NCI-N87, 2-DG 100 μM alone): 3%
- Tumor Growth Inhibition (%) ([4]; NCI-N87, 2-DG 500 μM alone): 6%
- Tumor Growth Inhibition (%) ([4]; NCI-N87, 2-DG 2 mM alone): 32%

Structure (SMILES): CN(C)C(=N)N=C(N)N [Metformin HCl, metformin hydrochloride]
- inhibition at 625 µM ([2]; Homo sapiens, MCF7, metformin HCl 0.625 mM alone, read-out: Tumor Growth Inhibition (%)): 9%
- inhibition at 1250 µM ([2]; Homo sapiens, MCF7, metformin HCl 1.25 mM alone, read-out: Tumor Growth Inhibition (%)): 22%
- inhibition at 2500 µM ([2]; Homo sapiens, MCF7, metformin HCl 2.5 mM alone, read-out: Tumor Growth Inhibition (%)): 24%
- inhibition at 5000 µM ([2]; Homo sapiens, MCF7, metformin HCl 5.0 mM alone, read-out: Tumor Growth Inhibition (%)): 30%
- inhibition at 10000 µM ([2]; Homo sapiens, MCF7, metformin HCl 10.0 mM alone, read-out: Tumor Growth Inhibition (%)): 38%
- inhibition at 20000 µM ([2]; Homo sapiens, MCF7, metformin HCl 20.0 mM alone, read-out: Tumor Growth Inhibition (%)): 61%
- inhibition at 625 µM ([3]; Homo sapiens, HCT-116, metformin HCl 0.625 mM alone, read-out: Tumor Growth Inhibition (%)): 7%
- inhibition at 1250 µM ([3]; Homo sapiens, HCT-116, metformin HCl 1.25 mM alone, read-out: Tumor Growth Inhibition (%)): 11%
- inhibition at 2500 µM ([3]; Homo sapiens, HCT-116, metformin HCl 2.5 mM alone, read-out: Tumor Growth Inhibition (%)): 40%
- inhibition at 5000 µM ([3]; Homo sapiens, HCT-116, metformin HCl 5.0 mM alone, read-out: Tumor Growth Inhibition (%)): 64%
- inhibition at 10000 µM ([3]; Homo sapiens, HCT-116, metformin HCl 10.0 mM alone, read-out: Tumor Growth Inhibition (%)): 63%
- inhibition at 20000 µM ([3]; Homo sapiens, HCT-116, metformin HCl 20.0 mM alone, read-out: Tumor Growth Inhibition (%)): 66%

Structure (SMILES): N=C(N)NC(=N)NCCc1ccccc1 [Phenformin HCl, phenformin hydrochloride]
- Normalized to Control (P-AMPK) ([1]; phenformin HCl 50 nM [sic]): 5.98
- P-AMPK (Unit/ml) ([1]; phenformin HCl 50 nM [sic]): 12.14 ± 2.0 Unit/ml
- inhibition at 100 µM ([2]; Homo sapiens, MCF7, 48 h, phenformin HCl 100 μM, read-out: Cell Growth Inhibition (%)): 14.3%
- inhibition at 10 µM ([2]; Homo sapiens, MCF7, phenformin 10 μM alone, read-out: Tumor Growth Inhibition (%)): 9%
- inhibition at 50 µM ([2]; Homo sapiens, MCF7, phenformin 50 μM alone, read-out: Tumor Growth Inhibition (%)): 12%
- inhibition at 100 µM ([2]; Homo sapiens, MCF7, phenformin 100 μM alone, read-out: Tumor Growth Inhibition (%)): 14%
- inhibition at 200 µM ([2]; Homo sapiens, MCF7, phenformin 200 μM alone, read-out: Tumor Growth Inhibition (%)): 18%
- inhibition at 400 µM ([2]; Homo sapiens, MCF7, phenformin 400 μM alone, read-out: Tumor Growth Inhibition (%)): 31%
- inhibition at 1000 µM ([2]; Homo sapiens, MCF7, phenformin 1 mM alone, read-out: Tumor Growth Inhibition (%)): 58%
- inhibition at 700 µM ([4]; Homo sapiens, NCI-N87, 48 h, phenformin HCl 700 μM): 52.5%
- inhibition at 10 µM ([4]; Homo sapiens, NCI-N87, phenformin 10 μM alone, read-out: Tumor Growth Inhibition (%)): 22%
- inhibition at 50 µM ([4]; Homo sapiens, NCI-N87, phenformin 50 μM alone, read-out: Tumor Growth Inhibition (%)): 24%
- inhibition at 100 µM ([4]; Homo sapiens, NCI-N87, phenformin 100 μM alone, read-out: Tumor Growth Inhibition (%)): 24%
- inhibition at 200 µM ([4]; Homo sapiens, NCI-N87, phenformin 200 μM alone, read-out: Tumor Growth Inhibition (%)): 24%
- inhibition at 400 µM ([4]; Homo sapiens, NCI-N87, phenformin 400 μM alone, read-out: Tumor Growth Inhibition (%)): 26%
- inhibition at 1000 µM ([4]; Homo sapiens, NCI-N87, phenformin 1 mM alone, read-out: Tumor Growth Inhibition (%)): 39%
- inhibitory effect on stomach cancer cells relative to breast cancer cells ([4]; NCI-N87 (700 μM) vs MCF7 (100 μM), 7-fold increased concentration): approximately 4 fold
